ChEMBL document CHEMBL3875176, “Synthesis and evaluation of in vitro antiproliferative activity of new ethyl 3-(arylethynyl)quinoxaline-2-carboxylate and pyrido[4,3-b]quinoxalin-1(2H)-one derivatives” (Eur J Med Chem, 2016)

How the values were obtained:
[1] = Antiproliferative activity against human U87MG cells after 72 hrs by MTT assay; type: functional, cell-based, U-87MG ATCC; conditions: U-87 MG
[2] = Antiproliferative activity against human A549 cells after 72 hrs by MTT assay; type: functional, cell-based; conditions: A549, 72 h

O=c1c2nc3ccccc3nc2cc(-c2ccccc2)n1-c1ccc(Cl)cc1
IC50 [1]: 34.6 µM | IC50 [2]: 43 µM

O=c1c2nc3ccccc3nc2cc(-c2ccccc2)n1-c1ccccc1
IC50 [1]: 21.3 µM | IC50 [2]: 46.4 µM

CCOC(=O)c1nc2ccccc2nc1C#Cc1ccccc1C
IC50 [1]: 31.6 µM | IC50 [2]: 27 µM

Cc1ccc(-c2cc3nc4ccccc4nc3c(=O)n2-c2ccccc2)cc1
IC50 [1]: 23.7 µM | IC50 [2]: 39.6 µM

CCOC(=O)c1nc2ccccc2nc1C#Cc1cccc(C)c1
IC50 [1]: 5.5 µM | IC50 [2]: 6.5 µM

CCOC(=O)c1nc2ccccc2nc1C#Cc1ccccc1
IC50 [1]: 3.3 µM | IC50 [2]: 3.3 µM

CCOC(=O)c1nc2ccccc2nc1C#Cc1cccc(F)c1
IC50 [1]: 1.9 µM | IC50 [2]: 3 µM

CCOC(=O)c1nc2ccccc2nc1C#CC1CCCC1
IC50 [1]: 11.4 µM | IC50 [2]: 11.2 µM

CCOC(=O)c1nc2ccccc2nc1C#Cc1ccc(C)cc1
IC50 [1]: 3.3 µM | IC50 [2]: 3.3 µM

CCOC(=O)c1nc2ccccc2nc1C#Cc1ccccc1OC
IC50 [1]: 11.6 µM | IC50 [2]: 7.9 µM

CCOC(=O)c1nc2ccccc2nc1C#CC1CC1
IC50 [1]: 6.2 µM | IC50 [2]: 7.6 µM
